This note sets out measurements from patent publication US4684620A, “Cyclic polypeptides having mu-receptor specificity” (Gibson-Stephens Neuropharmaceuticals, Inc., priority 1984, dated 1987).

This assay deals with mu-type opiate receptors. As to the kind of experiment: Guinea pig ileum (GPI) test, electrically stimulated contractions, antagonism of morphiceptin. Conditions: morphiceptin alone. The procedure: The compounds of the present invention were tested for their ability to inhibit electrically stimulated muscle contractions in the guinea pig ileum (GPI) assay and in the mouse vas deferens (MVD) assay.
The tests in the guinea pig ileum were conducted as follows: strips of longitudinal muscle with adhering myenteric plexus were prepared from nonterminal ilea of guinea pigs and attached to a force transducer in a 60 ml isolated organ bath. Contractions were elicited by electrical stimulation with a Grass S44D stimulator.

Residues, ends and D or L forms follow the SMILES beside them.

With `NC(=O)[C@@H]1CCCN1C(=O)[C@H](Cc1ccccc1)NC(=O)[C@@H]1CCCN1C(=O)[C@@H](N)Cc1ccc(O)cc1` [Morphiceptin] (H-YPFP-NH2), the “Percent inhibition of contractions” value was determined as 28 ± 3% (300 nM), 58 ± 3% (1000 nM), 73 ± 4% (3000 nM) and 73 ± 3% (10000 nM).
